Measured values as given in patent US20120245104A1, “NOVEL RETRO-INVERSO LEPTIN PEPTIDE ANTAGONISTS” (priority 2011, published 2012).
Where a SMILES comes first, the peptide text is derived from it. Where no end group is shown, it is not given here. [ ]: non-standard residue; d: D form.

Test system: MCF-7 cells
Format: cell-based
Settings: not given
Excerpt: These peptides were compared to full length LPA-1 with respect to their abilities to inhibit leptin-induced cell growth. […] The same approach was employed with LPA-2 creating […] of the leptin molecule). […] Another LPA-2 scrambled peptide that may be used is […] NO: 3]. […] Retro-inverso peptides are peptides constructed with the reverse sequence and containing all D-amino acids. […] Retro-inverso LPA-1(24-6) sequence […] NO: 31] and retro-inverso LPA-2(89-72) […] NO: 32]. […] Studies were carried out using both MCF-7 and HT-29 cells. […] MCF-7 and HT-29 cells were cultured in DMEM-F12 medium containing 5% fetal bovine serum (FBS), 5 μg/ml insulin, 1% amphopthericin B, 100 μg/ml streptomycin and 100 U/ml penicillin until they were 80% confluent. The cells were washed twice with 100 mM phosphate saline buffer (PBS), pH 7.2 and cultured for additional 2 days in the same medium but without FBS (basal medium). Cells were washed as described before and cultured in basal medium containing the leptin peptides of the present invention or controls as described above.

Compound | IC50 [nM]
VQDDVKTLIKTIVTRINDI-NH2 | 20.7
NVIQISNDLENLRDLLHV-NH2 [D79 (original amino acid)] | 32
VQDDAKTLIKTIVTRINDI-NH2 | 88
CC[C@@H](C)[C@@H](N)C(=O)N[C@H](CC(=O)O)C(=O)N[C@H](CC(N)=O)C(=O)N[C@@H](C(=O)N[C@H](CCCNC(=N)N)C(=O)N[C@@H](C(=O)N[C@@H](C(=O)N[C@@H](C(=O)N[C@@H](C(=O)N[C@H](CCCCN)C(=O)N[C@@H](C(=O)N[C@H](CC(C)C)C(=O)N[C@@H](C(=O)N[C@H](CCCCN)C(=O)N[C@@H](C(=O)N[C@H](CC(=O)O)C(=O)N[C@H](CC(=O)O)C(=O)N[C@H](CCC(N)=O)C(=O)N[C@@H](C(N)=O)C(C)C)[C@H](C)CC)[C@H](C)O)[C@H](C)CC)[C@H](C)O)[C@H](C)CC)C(C)C)[C@H](C)O)[C@H](C)CC [D-I10] (H-[dI][dD][dN][dI][dR][dT][dV][dI][dT][dK][dI][dL][dT][dK][dI][dD][dD][dQ][dV]-NH2) | 17.6
CC[C@@H](C)[C@@H](N)C(=O)N[C@H](CC(=O)O)C(=O)N[C@H](CC(N)=O)C(=O)N[C@@H](C(=O)N[C@H](CCCNC(=N)N)C(=O)N[C@@H](C(=O)N[C@@H](C(=O)N[C@@H](C(=O)N[C@@H](C(=O)N[C@H](CCCCN)C(=O)N[C@@H](C(=O)N[C@H](CC(C)C)C(=O)N[C@@H](C(=O)N[C@H](CCCCN)C(=O)N[C@@H](C(=O)N[C@H](CC(=O)O)C(=O)N[C@H](CC(=O)O)C(=O)N[C@H](CCC(N)=O)C(=O)N[C@@H](C(N)=O)C(C)C)[C@H](C)O)[C@H](C)O)[C@H](C)CC)[C@H](C)O)[C@H](C)CC)C(C)C)[C@H](C)O)[C@H](C)CC [D-T10(1), IDNIRTVITKILTKTDDQV] (H-[dI][dD][dN][dI][dR][dT][dV][dI][dT][dK][dI][dL][dT][dK][dT][dD][dD][dQ][dV]-NH2) | 16.9
NVIQISNILENLRDLLHV-NH2 | 16
CC[C@@H](C)[C@@H](NC(=O)[C@@H](CO)NC(=O)[C@@H](CC(N)=O)NC(=O)[C@H](NC(=O)[C@@H](CC(C)C)NC(=O)[C@@H](CCC(=O)O)NC(=O)[C@@H](CC(N)=O)NC(=O)[C@@H](CC(C)C)NC(=O)[C@@H](CCCNC(=N)N)NC(=O)[C@@H](CC(=O)O)NC(=O)[C@@H](CC(C)C)NC(=O)[C@@H](CC(C)C)NC(=O)[C@@H](Cc1c[nH]cn1)NC(=O)[C@H](N)C(C)C)C(C)C)C(=O)N[C@H](CCC(N)=O)C(=O)N[C@@H](C(=O)N[C@@H](C(=O)N[C@H](CC(N)=O)C(N)=O)C(C)C)[C@H](C)CC [D-V79] (H-[dV][dH][dL][dL][dD][dR][dL][dN][dE][dL][dV][dN][dS][dI][dQ][dI][dV][dN]-NH2) | 13.6
CC[C@@H](C)[C@@H](NC(=O)[C@@H](CO)NC(=O)[C@@H](CC(N)=O)NC(=O)[C@@H](CC(=O)O)NC(=O)[C@@H](CC(C)C)NC(=O)[C@@H](CCC(=O)O)NC(=O)[C@@H](CC(N)=O)NC(=O)[C@@H](CC(C)C)NC(=O)[C@@H](CCCNC(=N)N)NC(=O)[C@@H](CC(=O)O)NC(=O)[C@@H](CC(C)C)NC(=O)[C@@H](CC(C)C)NC(=O)[C@@H](Cc1c[nH]cn1)NC(=O)[C@H](N)C(C)C)C(=O)N[C@H](CCC(N)=O)C(=O)N[C@@H](C(=O)N[C@@H](C(=O)N[C@H](CC(N)=O)C(N)=O)C(C)C)[C@H](C)CC [D-D79(1), VHLLDRLNELDNSIQIVN] (H-[dV][dH][dL][dL][dD][dR][dL][dN][dE][dL][dD][dN][dS][dI][dQ][dI][dV][dN]-NH2) | 19.4
VQDDTKTLIKTIVTRINDI-NH2 [T10 (original amino acid)] | 25.7
NVIQISNLLENLRDLLHV-NH2 | 16
NVIQISNALENLRDLLHV-NH2 | 54
CC[C@@H](C)[C@@H](NC(=O)[C@@H](CO)NC(=O)[C@@H](CC(N)=O)NC(=O)[C@@H](CC(C)C)NC(=O)[C@@H](CC(C)C)NC(=O)[C@@H](CCC(=O)O)NC(=O)[C@@H](CC(N)=O)NC(=O)[C@@H](CC(C)C)NC(=O)[C@@H](CCCNC(=N)N)NC(=O)[C@@H](CC(=O)O)NC(=O)[C@@H](CC(C)C)NC(=O)[C@@H](CC(C)C)NC(=O)[C@@H](Cc1c[nH]cn1)NC(=O)[C@H](N)C(C)C)C(=O)N[C@H](CCC(N)=O)C(=O)N[C@@H](C(=O)N[C@@H](C(=O)N[C@H](CC(N)=O)C(N)=O)C(C)C)[C@H](C)CC [D-L79] (H-[dV][dH][dL][dL][dD][dR][dL][dN][dE][dL][dL][dN][dS][dI][dQ][dI][dV][dN]-NH2) | 18.7
CC[C@@H](C)[C@@H](N)C(=O)N[C@H](CC(=O)O)C(=O)N[C@H](CC(N)=O)C(=O)N[C@@H](C(=O)N[C@H](CCCNC(=N)N)C(=O)N[C@@H](C(=O)N[C@@H](C(=O)N[C@@H](C(=O)N[C@@H](C(=O)N[C@H](CCCCN)C(=O)N[C@@H](C(=O)N[C@H](CC(C)C)C(=O)N[C@@H](C(=O)N[C@H](CCCCN)C(=O)N[C@H](CC(C)C)C(=O)N[C@H](CC(=O)O)C(=O)N[C@H](CC(=O)O)C(=O)N[C@H](CCC(N)=O)C(=O)N[C@@H](C(N)=O)C(C)C)[C@H](C)O)[C@H](C)CC)[C@H](C)O)[C@H](C)CC)C(C)C)[C@H](C)O)[C@H](C)CC [D-L10] (H-[dI][dD][dN][dI][dR][dT][dV][dI][dT][dK][dI][dL][dT][dK][dL][dD][dD][dQ][dV]-NH2) | 11.8
VQDDIKTLIKTIVTRINDI-NH2 | 21
CC[C@@H](C)[C@@H](NC(=O)[C@@H](CC(C)C)NC(=O)[C@@H](CCC(=O)O)NC(=O)[C@@H](CC(N)=O)NC(=O)[C@@H](CC(C)C)NC(=O)[C@@H](CCCNC(=N)N)NC(=O)[C@@H](CC(=O)O)NC(=O)[C@@H](CC(C)C)NC(=O)[C@@H](CC(C)C)NC(=O)[C@@H](Cc1c[nH]cn1)NC(=O)[C@H](N)C(C)C)C(=O)N[C@H](CC(N)=O)C(=O)N[C@H](CO)C(=O)N[C@@H](C(=O)N[C@H](CCC(N)=O)C(=O)N[C@@H](C(=O)N[C@@H](C(=O)N[C@H](CC(N)=O)C(N)=O)C(C)C)[C@H](C)CC)[C@H](C)CC [D-I79] (H-[dV][dH][dL][dL][dD][dR][dL][dN][dE][dL][dI][dN][dS][dI][dQ][dI][dV][dN]-NH2) | 9.7
CC[C@@H](C)[C@@H](N)C(=O)N[C@H](CC(=O)O)C(=O)N[C@H](CC(N)=O)C(=O)N[C@@H](C(=O)N[C@H](CCCNC(=N)N)C(=O)N[C@@H](C(=O)N[C@@H](C(=O)N[C@@H](C(=O)N[C@@H](C(=O)N[C@H](CCCCN)C(=O)N[C@@H](C(=O)N[C@H](CC(C)C)C(=O)N[C@@H](C(=O)N[C@H](CCCCN)C(=O)N[C@@H](C(=O)N[C@H](CC(=O)O)C(=O)N[C@H](CC(=O)O)C(=O)N[C@H](CCC(N)=O)C(=O)N[C@@H](C(N)=O)C(C)C)C(C)C)[C@H](C)O)[C@H](C)CC)[C@H](C)O)[C@H](C)CC)C(C)C)[C@H](C)O)[C@H](C)CC [D-V10] (H-[dI][dD][dN][dI][dR][dT][dV][dI][dT][dK][dI][dL][dT][dK][dV][dD][dD][dQ][dV]-NH2) | 17.4
NVIQISNVLENLRDLLHV-NH2 | 15.6

Same assay, conditions: Table 1; L-amino acid peptides; cell line not named in Table 1 (same values in Table 2 are for MCF-7); read-out: IC50 values

Compound | IC50 [nM]
SRNVIQISNDLENLRDLLHVLAFSKS-NH2 [Full-length LPA-2 (70-95), reference compound] | 33
IQKVQDDTKTLIKTIVTRINDISHTQSVSSKQ-NH2 [Full-length LPA-1 (3-34), reference compound] | 39.1

Same assay, conditions: Table 2; MCF-7 cells; read-out: IC50 values

Compound | IC50 [nM]
SRNVIQISNDLENLRDLLHVLAFSKS-NH2 [Full-length LPA-2 (70-95), reference compound] | 33
IQKVQDDTKTLIKTIVTRINDISHTQSVSSKQ-NH2 [Full-length LPA-1 (3-34), reference compound] | 39.1
